Where two headings read alike, the source gives them in different places.
Tests used:
Format in all cases: biochemical
[1] = target: Human PDE4D (Homo sapiens (Human), UniProt Q08499); assay: PDE4D Scintillation Proximity Assay (SPA), inhibition of enzyme activity; settings: read-out: Human PDE4D FL
[2] = target: Human PDE4C (Homo sapiens (Human), UniProt Q08493); assay: PDE4C Scintillation Proximity Assay (SPA), inhibition of enzyme activity; settings: read-out: Human PDE4C FL
Description: (§1) The PDE4A3, PDE4B1, PDE4C1 and PDE4D3 assays use the Scintillation Proximity Assay (SPA) technology to measure the inhibition of human recombinant PDE4A1, PDE4B3, PDE4C1, and PDE4D3 enzyme activity by compounds in vitro. The PDE4A1, PDE4B3, PDE4C1, and PDE4D3 assays are run in parallel using identical parameters, except for the concentration of enzyme (80 pM PDE4A3, 40 pM PDE4B3, 40 pM PDE4C1 and 10 pM PDE4D). […] Reactions are incubated for 30 min at 25° C. The addition of 20 uL of 8 mg/ml yitrium silicate SPA beads (Perkin Elmer) stops the reaction. The plates are sealed (TopSeal, Perkin Elmer) and the beads are allowed to settle for 8 hrs, after which they are read on the Trilux Microbeta overnight.

[3] = target: Human PDE4A (Homo sapiens (Human), UniProt P27815); assay: PDE4A Scintillation Proximity Assay (SPA), inhibition of enzyme activity; settings: read-out: Human PDE4A FL
Description: as §1

[4] = human recombinant enzyme, 1 μM cAMP substrate, 30 min at 25° C., geometric mean of 2-9 determinations unless otherwise indicated

Human PDE4D, sequence (Q08499 186-808): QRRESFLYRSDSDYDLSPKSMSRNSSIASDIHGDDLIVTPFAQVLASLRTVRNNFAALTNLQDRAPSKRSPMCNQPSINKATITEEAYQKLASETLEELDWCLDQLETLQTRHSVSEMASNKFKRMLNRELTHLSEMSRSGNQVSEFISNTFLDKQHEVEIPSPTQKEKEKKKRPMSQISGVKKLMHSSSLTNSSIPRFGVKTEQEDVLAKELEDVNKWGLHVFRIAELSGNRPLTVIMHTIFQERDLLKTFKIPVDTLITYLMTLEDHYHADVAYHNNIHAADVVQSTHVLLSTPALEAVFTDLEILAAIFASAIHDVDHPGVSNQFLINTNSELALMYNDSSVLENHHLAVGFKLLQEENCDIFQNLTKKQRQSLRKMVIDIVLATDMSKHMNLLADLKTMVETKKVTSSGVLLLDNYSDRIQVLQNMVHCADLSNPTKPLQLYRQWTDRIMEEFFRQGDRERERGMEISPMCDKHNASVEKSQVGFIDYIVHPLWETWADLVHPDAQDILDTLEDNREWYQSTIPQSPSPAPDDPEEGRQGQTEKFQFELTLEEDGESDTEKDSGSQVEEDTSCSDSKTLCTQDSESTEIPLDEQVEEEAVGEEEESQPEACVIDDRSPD
Human PDE4A, sequence (P27815 other isoform, or with tags, fused parts or gaps): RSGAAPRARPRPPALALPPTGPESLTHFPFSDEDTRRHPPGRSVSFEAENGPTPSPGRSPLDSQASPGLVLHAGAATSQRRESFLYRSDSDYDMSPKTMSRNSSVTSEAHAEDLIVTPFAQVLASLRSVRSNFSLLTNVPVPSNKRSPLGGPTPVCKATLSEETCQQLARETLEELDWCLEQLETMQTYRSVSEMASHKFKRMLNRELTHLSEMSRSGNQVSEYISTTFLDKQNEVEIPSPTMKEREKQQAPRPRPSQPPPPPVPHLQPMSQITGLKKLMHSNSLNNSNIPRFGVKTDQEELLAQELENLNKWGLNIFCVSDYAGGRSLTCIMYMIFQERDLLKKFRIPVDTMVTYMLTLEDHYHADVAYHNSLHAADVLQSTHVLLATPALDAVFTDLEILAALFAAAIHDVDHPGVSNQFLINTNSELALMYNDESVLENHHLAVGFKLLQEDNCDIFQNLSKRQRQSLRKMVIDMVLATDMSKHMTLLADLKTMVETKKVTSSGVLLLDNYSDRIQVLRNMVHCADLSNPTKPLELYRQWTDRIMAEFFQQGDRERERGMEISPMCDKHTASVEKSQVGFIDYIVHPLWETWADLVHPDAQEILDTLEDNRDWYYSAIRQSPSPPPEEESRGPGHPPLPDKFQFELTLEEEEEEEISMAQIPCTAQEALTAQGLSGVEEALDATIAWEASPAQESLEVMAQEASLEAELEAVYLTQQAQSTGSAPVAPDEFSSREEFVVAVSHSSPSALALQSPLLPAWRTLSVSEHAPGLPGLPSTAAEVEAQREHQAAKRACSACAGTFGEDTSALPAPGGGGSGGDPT
Human PDE4C, sequence (Q08493 2-712): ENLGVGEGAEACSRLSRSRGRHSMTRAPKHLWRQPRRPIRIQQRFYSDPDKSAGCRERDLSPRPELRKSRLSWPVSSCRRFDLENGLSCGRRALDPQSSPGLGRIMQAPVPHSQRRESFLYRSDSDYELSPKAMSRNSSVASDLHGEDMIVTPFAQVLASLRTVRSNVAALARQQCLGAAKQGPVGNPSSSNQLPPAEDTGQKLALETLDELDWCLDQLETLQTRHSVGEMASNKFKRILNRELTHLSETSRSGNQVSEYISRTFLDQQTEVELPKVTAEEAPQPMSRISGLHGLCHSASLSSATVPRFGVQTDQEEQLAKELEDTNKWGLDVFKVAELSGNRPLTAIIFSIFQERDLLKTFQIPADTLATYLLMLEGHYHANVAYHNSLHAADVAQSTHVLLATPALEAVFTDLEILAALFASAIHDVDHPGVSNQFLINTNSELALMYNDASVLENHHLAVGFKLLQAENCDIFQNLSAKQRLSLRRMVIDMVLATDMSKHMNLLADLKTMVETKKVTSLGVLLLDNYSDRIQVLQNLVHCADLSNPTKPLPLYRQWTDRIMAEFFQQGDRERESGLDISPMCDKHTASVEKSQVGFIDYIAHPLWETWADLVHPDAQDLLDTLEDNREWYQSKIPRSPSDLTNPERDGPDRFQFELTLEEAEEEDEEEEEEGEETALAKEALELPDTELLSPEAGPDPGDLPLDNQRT

SMILES: CC1CC1NC(=O)c1nc2cccnn2c1-c1ccc(Cl)cc1 (stereo not shown) [Example 30, 3-(4-chlorophenyl)-N-(2-methylcyclopropyl)imidazo[1,2-b]pyridazine-2-carboxamide]
- IC50 [1, 4]: 4000 nM
- IC50 [2, 4]: 24.5 nM
- IC50 [3, 4]: 11.6 nM

SMILES: N#Cc1cc(F)c(-c2c(C(=O)NC3CC3)nc3cccnn23)cc1F [Example 92, 3-(4-cyano-2,5-difluorophenyl)-N-cyclopropylimidazo[1,2-b]pyridazine-2-carboxamide]
- IC50 [1, 4]: > 1440 nM
- IC50 [2, 4]: 42.5 nM
- IC50 [3, 4]: 5.52 nM

SMILES: O=C(NC1CC1)c1nc2cccnn2c1-c1ccc(Cl)cc1F [Example 40, 3-(4-chloro-2-fluorophenyl)-N-cyclopropylimidazo[1,2-b]pyridazine-2-carboxamide]
- IC50 [1, 4]: 9020 nM
- IC50 [2, 4]: 58.1 nM
- IC50 [3, 4]: 19.6 nM

SMILES: O=C(c1nc2cccnn2c1-c1ccc2ncoc2c1)N1CCC1 [Example 77, azetidin-1-yl[3-(1,3-benzoxazol-6-yl)imidazo[1,2-b]pyridazin-2-yl]methanone]
- IC50 [1, 4]: > 16600 nM
- IC50 [2, 4]: 186 nM
- IC50 [3, 4]: 46.1 nM

SMILES: O=C(NC1CC1)c1nc2cccnn2c1-c1cc(F)c(Cl)c(F)c1 [Example 104, 3-(4-chloro-3,5-difluorophenyl)-N-cyclopropylimidazo[1,2-b]pyridazine-2-carboxamide]
- IC50 [1, 4]: 145 nM
- IC50 [2, 4]: 4.69 nM
- IC50 [3, 4]: < 0.488 nM

SMILES: Cc1cc(-c2c(C(=O)N3CCC3)nc3cccnn23)cc(C)c1F [Example 53, azetidin-1-yl[3-(4-fluoro-3,5-dimethylphenyl)imidazo[1,2-b]pyridazin-2-yl]methanone]
- IC50 [1, 4]: 3110 nM
- IC50 [2, 4]: 153 nM
- IC50 [3, 4]: 17.8 nM

SMILES: Cc1cc(Cl)ccc1-c1c(C(=O)N[C@@H]2C[C@@H]2F)nc2cccnn12 [Example 70, 3-(4-chloro-2-methylphenyl)-N-[(1R,2S)-2-fluorocyclopropyl]imidazo[1,2-b]pyridazine-2-carboxamide]
- IC50 [1, 4]: 5760 nM
- IC50 [2, 4]: 90 nM
- IC50 [3, 4]: 36.4 nM

SMILES: O=C(NC1CC1)c1nc2cccnn2c1-c1ccnc(C(F)(F)F)c1 [Example 42, N-cyclopropyl-3-[2-(trifluoromethyl)pyridin-4-yl]imidazo[1,2-b]pyridazine-2-carboxamide]
- IC50 [1, 4]: < 12200 nM
- IC50 [2, 4]: 357 nM
- IC50 [3, 4]: 415 nM

SMILES: N#Cc1ccc(-c2c(C(=O)N3CCC3)nc3cccnn23)cc1F [Example 23, 4-[2-(azetidin-1-ylcarbonyl)imidazo[1,2-b]pyridazin-3-yl]-2-fluorobenzonitrile]
- IC50 [1, 4]: 4130 nM
- IC50 [2, 4]: 45.8 nM
- IC50 [3, 4]: 15.1 nM

SMILES: O=C(NC1CC1)c1nc2cccnn2c1-c1ccnc(OC(F)F)c1 [Example 75, N-cyclopropyl-3-[2-(difluoromethoxy)pyridin-4-yl]imidazo[1,2-b]pyridazine-2-carboxamide]
- IC50 [1, 4]: 104 nM
- IC50 [2, 4]: 24.9 nM
- IC50 [3, 4]: 10.5 nM

SMILES: O=C(N[C@@H]1C[C@@H]1F)c1nc2cccnn2c1-c1ccc(Cl)cc1F [Example 68, 3-(4-chloro-2-fluorophenyl)-N-[(1R,2S)-2-fluorocyclopropyl]imidazo[1,2-b]pyridazine-2-carboxamide]
- IC50 [1, 4]: 2620 nM
- IC50 [2, 4]: 25.1 nM
- IC50 [3, 4]: 10.6 nM

SMILES: O=C(N[C@@H]1C[C@@H]1F)c1nc2cccnn2c1-c1ccc(Cl)cc1 [Example 46, 3-(4-chlorophenyl)-N-[(1R,2S)-2-fluorocyclopropyl]imidazo[1,2-b]pyridazine-2-carboxamide]
- IC50 [1, 4]: 971 nM
- IC50 [2, 4]: 39.3 nM
- IC50 [3, 4]: 15.2 nM

SMILES: O=C(NC1CC1)c1nc2cccnn2c1-c1cncc(Cl)c1 [Example 14, 3-(5-chloropyridin-3-yl)-N-cyclopropylimidazo[1,2-b]pyridazine-2-carboxamide]
- IC50 [1, 4]: > 8010 nM
- IC50 [2, 4]: 108 nM
- IC50 [3, 4]: 73.7 nM

SMILES: N#Cc1ccc(-c2c(C(=O)NC3CC3)nc3cccnn23)c(F)c1 [Example 79, 3-(4-cyano-2-fluorophenyl)-N-cyclopropylimidazo[1,2-b]pyridazine-2-carboxamide]
- IC50 [1, 4]: > 25400 nM
- IC50 [2, 4]: 297 nM
- IC50 [3, 4]: 48.8 nM

SMILES: O=C(NC1CC1)c1nc2cccnn2c1-c1ccc2ncoc2c1 [Example 88, 3-(1,3-benzoxazol-6-yl)-N-cyclopropylimidazo[1,2-b]pyridazine-2-carboxamide]
- IC50 [1, 4]: 10400 nM
- IC50 [2, 4]: 136 nM
- IC50 [3, 4]: 45 nM

SMILES: O=C(NC1CC1)c1nc2cccnn2c1-c1cc(F)cc(Cl)c1 [Example 35, 3-(3-chloro-5-fluorophenyl)-N-cyclopropylimidazo[1,2-b]pyridazine-2-carboxamide]
- IC50 [1, 4]: 1220 nM
- IC50 [2, 4]: 37 nM
- IC50 [3, 4]: 35.7 nM

SMILES: CCNC(=O)c1nc2cccnn2c1-c1ccc(Cl)cc1 [Example 85, 3-(4-chlorophenyl)-N-ethylimidazo[1,2-b]pyridazine-2-carboxamide]
- IC50 [1, 4]: 6700 nM
- IC50 [2, 4]: 47.2 nM
- IC50 [3, 4]: 25.6 nM

SMILES: CCCNC(=O)c1nc2cccnn2c1-c1cc(Cl)cc(Cl)c1 [Example 28, 3-(3,5-dichlorophenyl)-N-propylimidazo[1,2-b]pyridazine-2-carboxamide]
- IC50 [1, 4]: 393 nM
- IC50 [2, 4]: 49 nM
- IC50 [3, 4]: 15.6 nM

SMILES: O=C(c1nc2cccnn2c1-c1ccnc(OC(F)F)c1)N1CCC1 [Example 76, azetidin-1-yl{3-[2-(difluoromethoxy)pyridin-4-yl]imidazo[1,2-b]pyridazin-2-yl}methanone]
- IC50 [1, 4]: 94.5 nM
- IC50 [2, 4]: 22.2 nM
- IC50 [3, 4]: 7.09 nM

SMILES: O=C(c1nc2cccnn2c1-c1ccc(Cl)cc1)N1CCC1 [Example 1, Azetidin-1-yl[3-(4-chlorophenyl)imidazo[1,2-b]pyridazin-2-yl]methanone]
- IC50 [1]: 10300 nM
- IC50 [2]: 130 nM

SMILES: COc1c(F)cc(-c2c(C(=O)N3CCC3)nc3cccnn23)cc1F [Example 3, Azetidin-1-yl[3-(3,5-difluoro-4-methoxyphenyl)imidazo[1,2-b]pyridazin-2-yl]methanone]
- IC50 [1]: 2410 nM
- IC50 [2]: 51.9 nM
- IC50 [3]: 12.7 nM

SMILES: CCNC(=O)c1nc2cccnn2c1-c1cc(F)c(Cl)cc1F [Example 96, 3-(4-chloro-2,5-difluorophenyl)-N-ethylimidazo[1,2-b]pyridazine-2-carboxamide]
- IC50 [1, 4]: 908 nM
- IC50 [2, 4]: 29.2 nM
- IC50 [3, 4]: 4.58 nM

SMILES: COc1ccc(-c2c(C(=O)N3CCC3)nc3cccnn23)cc1F [Example 55, azetidin-1-yl[3-(3-fluoro-4-methoxyphenyl)imidazo[1,2-b]pyridazin-2-yl]methanone]
- IC50 [1, 4]: > 20900 nM
- IC50 [2, 4]: > 1550 nM
- IC50 [3, 4]: 176 nM

SMILES: O=C(NC1CC1)c1nc2cccnn2c1-c1ccc(Cl)c(F)c1 [Example 10, 3-(4-chloro-3-fluorophenyl)-N-cyclopropylimidazo[1,2-b]pyridazine-2-carboxamide]
- IC50 [1, 4]: 590 nM
- IC50 [2, 4]: 6.84 nM
- IC50 [3, 4]: 1.51 nM

SMILES: Cc1cc(C#N)c(F)cc1-c1c(C(=O)N2CCC2)nc2cccnn12 [Example 20, 4-[2-(azetidin-1-ylcarbonyl)imidazo[1,2-b]pyridazin-3-yl]-2-fluoro-5-methylbenzonitrile]
- IC50 [1, 4]: 490 nM
- IC50 [2, 4]: 74.8 nM
- IC50 [3, 4]: 6.7 nM

SMILES: Cn1cc(NC(=O)c2nc3cccnn3c2-c2ccc(Cl)c(F)c2)cn1 [Example 7, 3-(4-Chloro-3-fluorophenyl)-N-(1-methyl-1H-pyrazol-4-yl)imidazo[1,2-b]pyridazine-2-carboxamide]
- IC50 [1]: 34.5 nM
- IC50 [2]: 2.35 nM
- IC50 [3]: 2.77 nM

SMILES: CNC(=O)c1nc2cccnn2c1-c1cc(F)c(Cl)cc1F [Example 93, 3-(4-chloro-2,5-difluorophenyl)-N-methylimidazo[1,2-b]pyridazine-2-carboxamide]
- IC50 [1, 4]: 4110 nM
- IC50 [2, 4]: 134 nM
- IC50 [3, 4]: 62.9 nM

SMILES: CC1(NC(=O)c2nc3cccnn3c2-c2ccc(Cl)cc2)CC1 [Example 33, 3-(4-chlorophenyl)-N-(1-methylcyclopropyl)imidazo[1,2-b]pyridazine-2-carboxamide]
- IC50 [1, 4]: 2330 nM
- IC50 [2, 4]: 127 nM
- IC50 [3, 4]: 58.6 nM

SMILES: CCCNC(=O)c1nc2cccnn2c1-c1ccc(Cl)cc1 [Example 26, 3-(4-chlorophenyl)-N-propylimidazo[1,2-b]pyridazine-2-carboxamide]
- IC50 [1, 4]: 3800 nM
- IC50 [2, 4]: 111 nM
- IC50 [3, 4]: 85.5 nM

SMILES: Cc1ccc(-c2c(C(=O)N[C@@H]3C[C@@H]3F)nc3cccnn23)cc1Cl [Example 71, 3-(3-chloro-4-methylphenyl)-N-[(1R,2S)-2-fluorocyclopropyl]imidazo[1,2-b]pyridazine-2-carboxamide]
- IC50 [1, 4]: 113 nM
- IC50 [2, 4]: 2 nM
- IC50 [3, 4]: < 0.669 nM

SMILES: CCCNC(=O)c1nc2cccnn2c1-c1cncc(Cl)c1 [Example 48, 3-(5-chloropyridin-3-yl)-N-propylimidazo[1,2-b]pyridazine-2-carboxamide]
- IC50 [1, 4]: > 7670 nM
- IC50 [2, 4]: 212 nM
- IC50 [3, 4]: 768 nM

SMILES: O=C(NCC1CC1)c1nc2cccnn2c1-c1ccc(Cl)cc1 [Example 102, 3-(4-chlorophenyl)-N-(cyclopropylmethyl)imidazo[1,2-b]pyridazine-2-carboxamide]
- IC50 [1, 4]: 5010 nM
- IC50 [2, 4]: 76 nM
- IC50 [3, 4]: 59.9 nM

SMILES: O=C(NC1CC1)c1nc2cccnn2c1-c1ccc2ccnn2c1 [Example 22, N-cyclopropyl-3-(pyrazolo[1,5-a]pyridin-6-yl)imidazo[1,2-b]pyridazine-2-carboxamide]
- IC50 [1, 4]: 1890 nM
- IC50 [2, 4]: 71.2 nM
- IC50 [3, 4]: 27.6 nM

SMILES: O=C(c1nc2cccnn2c1-c1ccc2ccnn2c1)N1CCC1 [Example 8, Azetidin-1-yl[3-(pyrazolo[1,5-a]pyridin-6-yl)imidazo[1,2-b]pyridazin-2-yl]methanone]
- IC50 [1, 4]: 5440 nM
- IC50 [3, 4]: 20 nM
